Source: article PMC6338836, “Structural basis for prodrug recognition by the SLC15 family of proton-coupled peptide transporters” (Proceedings of the National Academy of Sciences of the …, 2019)
Residues, ends and D or L forms follow the SMILES beside them.

Tests used:
PepTSh = experiment: IC50 competition assay, PepTSh WT proteoliposomes; type: biochemical, Staphylococcus hominis; conditions: for recognition: competition with AlaAla: N- or C-terminally blocked peptides
PepTSh Y79F = experiment: IC50 competition assay, PepTSh Y79F variant; type: biochemical, Staphylococcus hominis
PepTSh Y41F = experiment: IC50 competition assay, PepTSh Y41F variant; type: biochemical, Staphylococcus hominis; conditions: for IC50: PepTSh variant Y41F
[1] = set-up: method as in PMID 23264448, PMID 9610386; conditions: cited from earlier work
PepTSh N167A = experiment: IC50 competition assay, PepTSh N167A variant; type: biochemical, Staphylococcus hominis
PepT1 = test system: PepT1; set-up: method as in PMID 12649372; conditions: cited from earlier work
(UniProt Z9YNX0M2M8) = experiment: IC50 competition assay, PepTSh WT proteoliposomes; type: biochemical, Staphylococcus hominis; conditions: competition for dipeptide uptake
PepTSh N426A = experiment: IC50 competition assay, PepTSh N426A variant; type: biochemical, Staphylococcus hominis; conditions: PepTSh N426 removed (N426A)
PepTSh Y163A = experiment: IC50 competition assay, PepTSh Y163A variant; type: biochemical, Staphylococcus hominis; conditions: PepTSh Y163 removed (Y163A)
PepTSh Y41A = experiment: IC50 competition assay, PepTSh Y41A variant; type: biochemical, Staphylococcus hominis; conditions: PepTSh Y41 removed (Y41A)
PepTSh N426L = experiment: IC50 competition assay, PepTSh N426L variant; type: biochemical, Staphylococcus hominis; conditions: PepTSh N426 replaced with leucine (N426L)

Q: For `CC(=O)N[C@@H](C)C(=O)N[C@@H](C)C(=O)O` [Ac-AA-OH] (Ac-Ala-Ala-OH), which “recognition: competition with AlaAla” value (PepTSh) is on record?
A: can no longer bind the

Q: Which results are given for `C[C@H](N)C(=O)N[C@@H](C)C(=O)N[C@@H](C)C(=O)O` [Ala-Ala-Ala, trialanine]?
A: IC50 (PepTSh Y79F; PepTSh variant Y79F): 5.3 µM; effect of variant on IC50 compared with WT (PepTSh Y41F; PepTSh Y41F): no effect

Q: Which oral bioavailability [1] does the source give for `Nc1nc2c(ncn2COCCO)c(=O)[nH]1` [acyclovir] here?
A: 15%

Q: Which “recognition: competition with AlaAla” value (PepTSh) does the source give for `C[C@H](N)C(=O)N[C@@H](C)C(N)=O` [H-AA-NH2] (H-Ala-Ala-NH2) here?
A: can compete with AlaAla

Q: With `NCC(=O)CCC(=O)O` [5-aminolevulinic acid] as the compound, how does the “effect of variant on affinity / IC50 compared with WT” value (PepTSh N167A) read?
A: unchanged

Q: And the IC50 (PepT1)?
A: 2100 µM

Q: What about the IC50 ((UniProt Z9YNX0M2M8)) of the same compound?
A: 10400 µM

Q: With `C[C@H](N)C(=O)N[C@@H](C)C(=O)O` [Ala-Ala, dialanine] (H-Ala-Ala-OH) as the compound, how does the “effect of variant on transport compared with WT” value (PepTSh Y79F; PepTSh Y79F) read?
A: limited effect

Q: And the IC50 (PepTSh Y41F)?
A: 866 µM

Q: For `CC(C)[C@H](N)C(=O)OCCOCn1cnc2c(=O)[nH]c(N)nc21` [valacyclovir], which “effect of variant on affinity compared with WT” value (PepTSh N426A) is on record?
A: improved affinity

Q: And the “effect of variant on affinity / IC50 compared with WT” value (PepTSh N167A)?
A: little effect on the affinity

Q: What about the “effect of variant on recognition” value (PepTSh Y163A) of the same compound?
A: abrogated valacyclovir recognition

Q: And the IC50 (PepTSh Y41F)?
A: 1300 µM

Q: What about the IC50 (PepTSh; competition for dipeptide uptake) of the same compound?
A: 7400 µM

Q: What about the “effect of variant on affinity compared with WT” value (PepTSh Y41A) of the same compound?
A: little effect on the affinity

Q: What about the “effect of variant on affinity compared with WT” value (PepTSh N426L) of the same compound?
A: negligible effect

Q: And the oral bioavailability [1]?
A: > 50%
